Experimental findings from publication PMC3688767, “Lipoprotein FtsB in Streptococcus pyogenes Binds Ferrichrome in Two Steps with Residues Tyr137 and Trp204 as Critical Ligands” (PLoS ONE, 2013) are described below.

Experiment [1] deals with T1, WT FtsB (Streptococcus pyogenes, UniProt Q9A198). The experiment can be described thus: Fluorescence quenching titration of ferrichrome binding, Hill plot. The procedure: (§1) The interaction between FtsB and Fch was investigated in a fluorescence spectroﬂuorimeter (Hitachi F7000), in which the excitation wavelength was 280 nm (slit width of 2.5 nm) and the emission wavelength was between 290 and 500 nm (slit width of 10 nm). Aliquots of Fch (1 mM stock solution) were gradually added to 1 mL FtsB solution (1.5 µM, in 20 mM Tris–HCl, pH 7.2). Fluorescence spectra were collected after each titration until the spectra were stable. The data were analyzed with Hill plot in Origin 7.5 to acquire the binding capability and dissociation constant (K d). pH dependent Fch binding with FtsB was also examined in the same buffer with pH 3.2–9.2.

Experiment [2] concerns the target T2, FtsB Tetra mutant E120A/Y137A/W204A/Y287A (Streptococcus pyogenes, UniProt Q9A198, E120A/W204A/Y137A/Y287A).
T2 sequence (Q9A198 21-310 E120A/Y137A/W204A/Y287A): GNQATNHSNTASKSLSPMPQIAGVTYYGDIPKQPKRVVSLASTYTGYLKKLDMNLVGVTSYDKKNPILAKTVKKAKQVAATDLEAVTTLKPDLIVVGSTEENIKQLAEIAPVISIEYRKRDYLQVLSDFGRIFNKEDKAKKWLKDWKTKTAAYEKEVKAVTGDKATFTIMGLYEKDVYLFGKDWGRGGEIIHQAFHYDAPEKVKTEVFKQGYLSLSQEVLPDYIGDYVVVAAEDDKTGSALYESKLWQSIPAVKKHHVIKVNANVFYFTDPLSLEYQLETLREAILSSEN
The description is as above. The conditions noted are these: 20 mM Tris-HCl, pH 7.2, may be no-specific interaction, read-out: Dissociation constant K d. The procedure: (§2) E120A, Y137A, W204A and Y287A mutants were constructed by QuikChange mutagenesis kit (Stratagene) with the wild-type ftsb plasmid as a template, using primers summarized in Table 1. To further study the collective contribution of Glu120, Tyr137, Trp204 and Tyr287 to the Fch binding of FtsB, a tetra-point mutation E120A/Y137A/W204A/Y287A was produced by mutating these four amino acids to alanine simultaneously. The PCR reactions were performed as follows: denaturation at 95°C for 30 s, followed by 16 cycles with denaturation at 95°C for 30 s, annealing at 55°C for 1 min, and extension at 68°C for 6 min [14]. The mutant plasmids were transformed into E. coli XL1-blue for sequencing (Invitrogen). The mutant plasmid with correct sequence was transformed into E. coli BL21 (DE3) star competent cells for subsequent expression. Expression and purification of the FtsB mutants were carried out by following the same protocol as for the wild-type protein.
as §1

Another experiment addresses T3, FtsB mutant E120A (Streptococcus pyogenes, UniProt Q9A198, E120A).
T3 sequence (Q9A198 21-310 E120A): T2 sequence (Q9A198 21-310 E120A/Y137A/W204A/Y287A)
The description is as above. The conditions noted are these: 20 mM Tris-HCl, pH 7.2, read-out: Dissociation constant K d. The procedure: as §2, §1

In another experiment the target is T4, FtsB mutant W204A (Streptococcus pyogenes, UniProt Q9A198, W204A).
T4 sequence (Q9A198 21-310 W204A): T2 sequence (Q9A198 21-310 E120A/Y137A/W204A/Y287A)
Described as above. The procedure: as §2, §1

Experiment [3] deals with T5, FtsB mutant Y137A (Streptococcus pyogenes, UniProt Q9A198, Y137A).
T5 sequence (Q9A198 21-310 Y137A): T2 sequence (Q9A198 21-310 E120A/Y137A/W204A/Y287A)
Described as above. The procedure: as §2, §1

The target of the next experiment is T6, FtsB mutant Y287A (Streptococcus pyogenes, UniProt Q9A198, Y287A).
T6 sequence (Q9A198 21-310 Y287A): T2 sequence (Q9A198 21-310 E120A/Y137A/W204A/Y287A)
The experiment is described as above. The conditions noted are these: 20 mM Tris-HCl, pH 7.2, read-out: Dissociation constant K d. The procedure:
as §2, §1

The target of experiment [4] is T5, FtsB mutant Y137A. Briefly: Stopped-flow fluorescence binding kinetics. The conditions noted are these: Y137A 10 µM mixed with Fch 1∶1, 25°C, pH 7.2, first-order exponential fit; listed as Fch. The procedure: (§3) Binding kinetics experiments were carried out using a stopped-ﬂow ﬂuorescence spectrometer (Applied Photophysics, SX200) at 25°C. The excitation wavelength was 280 nm and the ﬂuorescence emission was measured using a high-pass filter with a 320 nm cutoff. Binding reaction was initiated by mixing 10 µM FtsB in 20 mM Tris-HCl (pH 7.2) with Fch in a 1∶1 ratio. Kinetics experiments were performed 5 times, and data were analyzed with a second-order or first-order exponential function offered by Origin 7.5 software.

Experiment [5] concerns the target T1, WT FtsB. Briefly: Stopped-flow fluorescence binding kinetics. The conditions noted are these: WT FtsB 10 µM mixed with Fch 1∶1, 25°C, pH 7.2, second-order exponential fit; listed as Fch. The procedure: as §3

“And” between values parts separate entries of the source, which are not always exact repeats. Identical values can stand only once. Square brackets hold non-standard residues; d marks the D form. Peptide text beside a SMILES is read from it. Orn(N5-OH,N5-Ac) = CC(=O)N(O)CCC[C@H](N)C(=O)O

For the compound `CC(=O)N([O-])CCC[C@@H]1NC(=O)CNC(=O)CNC(=O)CNC(=O)[C@H](CCCN([O-])C(C)=O)NC(=O)[C@H](CCCN([O-])C(C)=O)NC1=O.[Fe+3]` [ferrichrome, Ferrichrome] (cyclo(GGG[Orn(N5-OH,N5-Ac)][Orn(N5-OH,N5-Ac)][Orn(N5-OH,N5-Ac)])), the Kd amounted to 400 ± 20 nM at WT FtsB [1] (WT FtsB 1.5 µM, 20 mM Tris-HCl, pH 7.2, read-out: Dissociation constant K d); 43900 ± 2500 nM in experiment [2]; 520 ± 30 nM on FtsB mutant E120A; 7050 ± 80 nM on FtsB mutant W204A (W204A mutant, 20 mM Tris-HCl, pH 7.2, read-out: Dissociation constant K d); 3700 ± 100 nM on FtsB mutant Y137A [3] (Y137A mutant, 20 mM Tris-HCl, pH 7.2, read-out: Dissociation constant K d); 520 ± 20 nM at FtsB mutant Y287A. Besides, the “pH of maximal binding” value on WT FtsB [1] (pH dependence examined at pH 3.2–9.2) amounted to 7.2. Besides, the “folds higher K d in comparison with WT” value at FtsB mutant W204A (W204A mutant vs WT FtsB) and at FtsB mutant Y137A [3] (Y137A mutant vs WT FtsB) was 10–20 folds throughout. The rate constant k at FtsB mutant Y137A [4] is 191.6 ± 7.6 s⁻¹ and 191 s⁻¹. In addition, on WT FtsB [5], the “fast rate constant k1” value was 180.2 ± 5.4 s⁻¹ and 180 s⁻¹. The “slow rate constant k2” value at WT FtsB [5] was found to be 18.7 ± 1.3 s⁻¹.
